The values that follow come from ChEMBL document CHEMBL4840311, “Discovery of novel nitrogenous heterocyclic-containing quinoxaline-1,4-di-N-oxides as potent activator of autophagy in M.tb-infected macrophages” (Eur J Med Chem, 2021).

In brackets after ≈: the same amount, converted by molar mass.

In series [1] the test system is Mycobacterium tuberculosis. The series can be described thus: Antimycobacterial activity against Mycobacterium tuberculosis H37Rv ATCC 27294 assessed as inhibition of bacterial growth measured after 5 days by microplate alamar blue assay. The series is classed as functional. As to conditions: H37Rv ATCC 27294, 120 h, time 5 day. For orientation: Resazurin is reduced to fluorescent resorufin, in cell work by metabolically active cells.

For the next series, the system named is J774.A1. The series can be described thus: Cytotoxicity against mouse J774.A1 cells assessed as reduction in cell viability measured after 72 hrs by MTT assay. Type of series: cell-based. As to conditions: J774.A1, 72 h. Background: Tetrazolium assays rely on reduction of a dye to a coloured formazan, in cell work by metabolically active cells.
The subject of another series is Vero. The series can be described thus: Cytotoxicity against African green monkey Vero cells assessed as reduction in cell viability measured after 72 hrs by MTT assay. Type of series: cell-based. As to conditions: Chlorocebus sabaeus.
Series [2] in a line: Selectivity index, ratio of IC50 for African green monkey Vero cells measured after 72 hrs by MTT assay to MIC for antimycobacterial activity against Mycobacterium tuberculosis H37Rv ATCC 27294 assessed as inhibition of bacterial growth measured after 5 days by microplate alamar blue assay. The settings on record: read-out: Selectivity Index. Type of series: toxicity.

For orientation: MIC means the lowest concentration found to suppress growth. As for `CC(=O)c1c(C)[n+]([O-])c2cc(N3CCNCC3)ccc2[n+]1[O-]`, the MIC in series [1] is 64 µg/mL (≈ 212 µM).
Consider `CCOC(=O)c1c(C)[n+]([O-])c2cc(N3CCCC3)c(F)cc2[n+]1[O-]`, for which the MIC in series [1] worked out at 64 µg/mL (≈ 191 µM).
As for `CO[C@H]1/C=C/O[C@@]2(C)Oc3c(C)c(O)c4c(O)c(c(/C=N/N5CCN(C)CC5)c(O)c4c3C2=O)NC(=O)/C(C)=C\C=C\[C@H](C)[C@H](O)[C@@H](C)[C@@H](O)[C@@H](C)[C@H](OC(C)=O)[C@@H]1C` [RIFAMPIN], the MIC in series [1] was determined as 0.0625 µg/mL (≈ 0.0759 µM).
Regarding `Cc1c(C(=O)OC(C)C)[n+]([O-])c2cc(-n3ccnc3)c(-n3ccnc3)cc2[n+]1[O-]`, the MIC in series [1] came to 8 µg/mL (≈ 20.3 µM).
In general, IC50 refers to the point on the concentration scale where inhibition reaches its midpoint. Turning to `CCOC(=O)c1c(C)[n+]([O-])c2cc(-n3cncn3)c(F)cc2[n+]1[O-]`, the IC50 was 77.7 µM with J774.A1 and 155 µM with Vero. Further, the MIC in series [1] was determined as 0.125 µg/mL (≈ 0.375 µM). For the same compound, the selectivity ratio at 72 hrs in series [2] came to 412.
With `CC(=O)c1c(C)[n+]([O-])c2ccccc2[n+]1[O-]` [MEQUINDOX], the MIC in series [1] was 8 µg/mL (≈ 36.7 µM).
As to `CCOC(=O)c1c(C)[n+]([O-])c2cc(-n3ccnc3)c(F)cc2[n+]1[O-]`, the concentration for half-maximal inhibition (IC50) in the series with J774.A1 was found to be 77.7 µM; with Vero, 129 µM. The MIC in series [1] was found to be 0.25 µg/mL (≈ 0.752 µM). In addition, the selectivity ratio at 72 hrs in series [2] is 172.
In the case of `CC(=O)c1c(C)[n+]([O-])c2cc(N3CCNCC3)c(F)cc2[n+]1[O-]`, the MIC in series [1] amounted to 4 µg/mL (≈ 12.5 µM).
Consider `CCOC(=O)c1c(C(F)(F)F)[n+]([O-])c2cc(-n3ccnc3)c(F)cc2[n+]1[O-]`, for which the IC50 in the series with Vero came out at 19.4 µM. Moreover, the MIC in series [1] turned out to be 0.25 µg/mL (≈ 0.647 µM). Further, the selectivity ratio at 72 hrs in series [2] was determined as 30.
Regarding `CCOC(=O)c1c(C)[n+]([O-])c2cc(N3CCOCC3)c(F)cc2[n+]1[O-]`, the MIC in series [1] was 64 µg/mL (≈ 182 µM).
In the case of `Cc1c(C(=O)OC(C)C)[n+]([O-])c2cc(F)c(F)cc2[n+]1[O-]`, the MIC in series [1] is 16 µg/mL (≈ 53.6 µM).
For `CCCC(=O)c1c(C)[n+]([O-])c2cc(N3CCNCC3)c(F)cc2[n+]1[O-]`, the MIC in series [1] turned out to be 16 µg/mL (≈ 45.9 µM).
As to `CCOC(=O)c1c(C)[n+]([O-])c2cc(N3CCNC(C)C3)c(F)cc2[n+]1[O-]` (centres undefined), the MIC in series [1] turned out to be 8 µg/mL (≈ 22 µM).
For the compound `CC(=O)c1c(C)[n+]([O-])c2cc(N3CCNC(C)C3)c(F)cc2[n+]1[O-]` (centres undefined), in series [1], the MIC worked out at 16 µg/mL (≈ 47.9 µM).
For `Cc1c(C(=O)CC(C)C)[n+]([O-])c2cc(F)c(N3CCNCC3)cc2[n+]1[O-]`, the minimal inhibitory concentration (MIC) in series [1] was 32 µg/mL (≈ 88.3 µM).
On to `CCCC(=O)c1c(C)[n+]([O-])c2ccccc2[n+]1[O-]`, for which the MIC in series [1] stood at 64 µg/mL (≈ 260 µM).
